Assay results as given in patent publication US5798391A, “Injectable solution of benzalkonium fluoride” (Aromafarm Limited, priority 1994, dated 1998).
Like-named read-outs stand apart in the source and are kept apart here.

Experiments:
rabbit blood = assay: in vitro haemolysis of total blood, rabbit
mice = assay: LD 50, unique administration, Behrens and Karber method, mice; type: in vivo, albino mouse
Description: (§1) The high toxicity of benzalkonium fluoride in unique administration in mice and guinea pigs was determined by the Behrens and Karber method, by intracardiac, intravenous and intraperitoneal injection. The animals used were young adult albino mice and albino guinea pigs. Ten animals were used for each dose administered, five males and five females. The benzalkonium fluoride was used in a 3 g/l isotonic solution of sterile apyrogenic sodium chloride. We observed the animals for 7 days after unique administration carried out using a sterile needle adapted to a syringe graduated in 1/10 ml to allow the treatment of each animal with an exact dose. The animals were weighed each day during the observation period.
(§2) The LD 50 (lethal dose 50) was determined.

guinea pigs = assay: LD 50, unique administration, Behrens and Karber method, guinea pigs; type: in vivo, albino guinea pig
Description: as §1, §2

HIV-1 virus (LAI strain) = assay: residual infectiousness of treated HIV-1 on activated human lymphocytes, reverse transcriptase activity; type: cell-based, HIV-1 (LAI strain)
[1] = tested on: HERPES SIMPLEX VIRUS TYPE 1; assay: virucidal activity of BKF, AFNOR T72-180, molecular screening (Table 4); type: cell-based, Herpes Simplex Virus Type 1 (HSV 1); conditions: 32° C.
AIDS = conditions: person
[2] = female German Pointer 12 kg, same treatment

CCCCCCCCCCCCCC[N+](C)(C)Cc1ccccc1.[F-] [benzalkonium fluoride, tetradecyl-dimethyl-benzyl-ammonium fluoride]
haemolysis (degree of red colouring) (rabbit blood; 37.5 ppm or mg/l): 0
haemolysis (degree of red colouring) (rabbit blood; 75 ppm or mg/l): +
haemolysis (degree of red colouring) (rabbit blood; 150 ppm or mg/l): +++
LD 50 (mice; female mouse, intraperitoneal): 34.60 mg/mL
LD 50 (mice; female mouse, intravenous): 36.60 mg/mL
acute toxicity, overall (mice; intravenous, intraperitoneal or intracardiac injection, mice and guinea pigs): sufficiently low toxicity
LD 50 (mice; male mouse, intraperitoneal): 33.10 mg/mL
LD 50 (mice; male mouse, intravenous): 33.24 mg/mL
LD 50 (guinea pigs; female guinea pig, intracardiac): 16.50 mg/mL
LD 50 (guinea pigs; female guinea pig, intraperitoneal): 20.50 mg/mL
LD 50 (guinea pigs; male guinea pig, intracardiac): 15.50 mg/mL
LD 50 (guinea pigs; male guinea pig, intraperitoneal): 28.50 mg/mL
toxicity threshold (D.L.0) (VERO, KB and MCR-5 cells; after filtration): 0.01%
toxicity threshold (D.L.0) (VERO, KB and MCR-5 cells; before filtration): 0.05%
RT activity in culture supernatants (HIV-1 virus (LAI strain); 1/2 dilution of virus treated with BKF, second experiment (FIG. 2)): No RT activity was detected
reverse transcriptase activity in culture supernatants (HIV-1 virus (LAI strain); 1/10 dilution of virus treated with BKF 20 μg/ml for 30 or 60 minutes (FIG. 1)): no reverse transcriptase activity is revealed
log reduction at 20 µg/mL (HIV-1 virus (LAI strain); Human immunodeficiency virus 1, Lymphocyte, 20 μg/ml, activated human lymphocytes, read-out: loss of infectious capacity in the HIV-1 virus): 5
virucidal activity: minimal contact time ([1]; 0.01% (m/V)): 5 min
Viral Titration ([1]; 0.01% (m/V), 30 minutes): 0 PFU/ml
Viral Titration ([1]; 0.01% (m/V), 60 minutes): 0 PFU/ml
Viral Titration ([1]; 0.01% (m/V), 120 minutes): 0 PFU/ml
Viral Titration ([1]; 0.02% (m/V), 15 minutes): 0 PFU/ml
Viral Titration ([1]; 0.02% (m/V), 30 minutes): 0 PFU/ml
Viral Titration ([1]; 0.02% (m/V), 60 minutes): 0 PFU/ml
Viral Titration ([1]; 0.02% (m/V), 120 minutes): 0 PFU/ml
virucidal activity: minimal concentration (reduction by logarithmic factor of at least 4) ([1]; 5 minutes contact): 0.01 % (m/V)
pain at the injection point (AIDS; 50 ml at 2.1 g/l every twelve hours, end of second cure): pain at the injection point
number of CD4 (AIDS; after treatment, before: less than 200): 600
general state (AIDS; fourth month): returned to a normal general state
general state (AIDS; one month and seven months after treatment): a good general state
fever (AIDS; sixth day, 50 ml at 2.1 g/l every eight hours, three days, with Doxycycline): the fever had disappeared
fever, vomiting and diarrhoea (AIDS; tenth day): disappearance of the fever, vomiting and diarrhoea
general state (AIDS; tenth day, two cures of three days): a clear improvement in the general state
weight after gain (AIDS; tenth day, before 57 kg): 59.6 kg
fever (AIDS; third day, 2.1 g/l every twelve hours): a clear fall in the fever
clinical symptoms (AIDS; three and a half months): no clinical symptoms
general state (AIDS; three and a half months): a good general state
weight (AIDS; three and a half months, before 52 kg): 56 kg
number of CD4 (AIDS; three and a half months, before 200): 700
mobility (AIDS; totally bedridden before): could get up and walk
asthenia (AIDS; two months after start): progressive disappearance of the asthenia
tolerance (parvovirus; dog, in vivo): excellent
normal eating (parvovirus; [2]): 4 days
total recovery confirmed (parvovirus; [2]): 18 days
total recovery (parvovirus; female German Shepherd 10 kg, 10 ml then 20 ml, associated treatment 8 days): 20 days
complete recovery (parvovirus; female Rottweiler 15 kg, two injections of 10 ml, 12 h apart): 18 days
recovery, days after start of treatment (parvovirus; male German Shepherd 20 kg, two injections at 12 h interval, 2.1 g/l): 6 days
normal eating (parvovirus; male Newfoundland 28 kg, after four days): eating normally
blood in urine and vomiting (parvovirus; male Newfoundland 28 kg, two injections of 10 ml, end of second day): the blood had disappeared from the urine and the dog no longer vomited
death (parvovirus; three puppies with violent evolutive gastro-enteritis, two injections at 12 h interval): Death occurred within two days
